The target of one experiment is T1, human GIP R (Homo sapiens, UniProt P48546).
T1 construct: expressed in transfected cells
T1 sequence (P48546 22-466): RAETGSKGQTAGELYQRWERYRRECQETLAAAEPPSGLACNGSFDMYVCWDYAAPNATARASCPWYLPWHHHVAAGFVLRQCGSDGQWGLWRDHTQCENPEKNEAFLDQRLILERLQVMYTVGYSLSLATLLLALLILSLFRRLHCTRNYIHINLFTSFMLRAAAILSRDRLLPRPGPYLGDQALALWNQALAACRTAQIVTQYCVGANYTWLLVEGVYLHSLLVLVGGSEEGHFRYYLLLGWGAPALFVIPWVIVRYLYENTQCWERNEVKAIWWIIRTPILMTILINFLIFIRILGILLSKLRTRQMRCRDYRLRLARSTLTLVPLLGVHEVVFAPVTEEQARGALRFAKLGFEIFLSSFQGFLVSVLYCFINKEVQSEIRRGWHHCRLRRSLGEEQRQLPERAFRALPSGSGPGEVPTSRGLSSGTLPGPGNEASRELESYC
Put plainly: Human GIP receptor (GIP R) activity assay, cAMP induction (AlphaScreen) in HEK293 cells. In kind it is cell-based. As to conditions: read-out: hGIP-R cAMP EC50 average value. The method, then: (§1) Human GIP Receptor (GIP R) and GLP-1 Receptor (GLP-1 R) Activity Assay
(§2) In vitro effects of peptide conjugates of the invention were assessed by measuring the induction of cAMP following stimulation of the respective receptor by GIP, GLP1 or analogues of these, as outlined in the invention, using the AlphaSceen® cAMP kit from Perkin-Elmer according to instructions. Briefly, HEK293 cells expressing the human GIP R or GLP-1 R (stable cell lines generated through transfection of the cDNA for human GIP R or GLP-1 and selection of stable clones) were seeded at 30,000 cells/well in 96-well microtiter plates coated with 0.01% poly-L-lysine, and grown for 1 day in culture in 200 μl growth medium (DMEM, 10% FCS, Penicillin (100 IU/ml), Streptomycin (100 μg/ml)). On the day of analysis, growth medium was removed and the cells were washed once with […] Tyrode's buffer (Tyrode's Salts (9.6 g/l), 10 mM HEPES, pH 7.4). […] The Assay buffer was removed and cells are lysed in 80 μl Lysis buffer (0.1% w/v BSA, 5 mM HEPES, 0.3% v/v Tween-20) per well. From each well 10 μl lysed cells was transferred to a 384-well plate and mixed with 15 μl bead-mix (1 Unit/15 μl anti-cAMP Acceptor Beads, 1 Unit/15 μl Donor Beads, and 1 Unit/15 μl Biotinylated cAMP in Assay Buffer). The plates were mixed and incubated in the dark for an hour at room temperature before measuring using an Envision™ plate reader (Perkin-Elmer).
(§3) The resulting cAMP curves were plotted as absolute cAMP concentrations (nM) over log (test compound concentration) and analyzed using the curve fitting program XLfit.
(§4) Parameters calculated to describe both the potency as well as the agonistic activity of each test compound on the receptors were:
(§5) EC50, a concentration resulting in a half-maximal elevation of cAMP levels, reflecting the potency of the test compound.

The target in the next experiment is T2, human GLP-1 R (Homo sapiens, UniProt P43220).
T2 construct: expressed in transfected cells
Put plainly: Human GLP-1 receptor (GLP-1 R) activity assay, cAMP induction (AlphaScreen) in HEK293 cells. In kind it is cell-based. On the procedure: as §1, §2, §3, §4, §5

Where [1] appears, read: Table 2a, secondary assay study.
[2] abbreviates: Table 2a, secondary assay study, read-out: hGLP1-R cAMP EC50 average value.
[3] abbreviates: Table 2, HEK293 cells expressing human GIP R.
[4] abbreviates: Table 2, HEK293 cells expressing human GLP-1 R, read-out: hGLP1-R cAMP EC50 average value.

Where two headings read alike, the source gives them in different places. *1 amine or outer side, *2 acyl side, *3 side chain or, on linkers, in order; H or OH if unused. Where a SMILES comes first, the peptide text is derived from it. Side-chain parts run from the residue outwards. [ ]: non-standard residue; d: D form. The star is where a group is joined. C18 diacid = O=C(O)CCCCCCCCCCCCCCCCC(=O)*; γGlu = O=C(O)[C@H](CCC(=O)[*:2])N[*:1]; AEEA = NCCOCCOCC(=O)O; Aib = CC(C)(N)C(=O)O

T2 sequence (P43220 24-463): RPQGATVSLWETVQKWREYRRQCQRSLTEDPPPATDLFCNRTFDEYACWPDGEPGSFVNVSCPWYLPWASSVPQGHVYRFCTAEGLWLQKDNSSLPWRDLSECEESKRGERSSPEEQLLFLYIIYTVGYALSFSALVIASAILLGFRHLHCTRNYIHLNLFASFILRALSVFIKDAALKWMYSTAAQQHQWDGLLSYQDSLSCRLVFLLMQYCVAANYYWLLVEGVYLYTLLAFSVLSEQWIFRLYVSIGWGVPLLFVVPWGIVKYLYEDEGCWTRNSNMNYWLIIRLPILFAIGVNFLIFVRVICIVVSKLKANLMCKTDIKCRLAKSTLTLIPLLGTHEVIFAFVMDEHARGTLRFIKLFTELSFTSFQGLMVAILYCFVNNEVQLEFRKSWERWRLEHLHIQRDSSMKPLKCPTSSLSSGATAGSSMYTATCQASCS

Regarding `CC[C@H](C)[C@H](NC(=O)[C@H](CO)NC(=O)[C@H](Cc1ccc(O)cc1)NC(=O)[C@H](CC(=O)O)NC(=O)[C@H](CO)NC(=O)[C@@H](NC(=O)[C@H](Cc1ccccc1)NC(=O)[C@@H](NC(=O)CNC(=O)[C@H](CCC(=O)O)NC(=O)C(C)(C)NC(=O)[C@@H](N)Cc1ccc(O)cc1)[C@@H](C)O)[C@@H](C)O)C(=O)N[C@@H](C)C(=O)N[C@@H](CC(C)C)C(=O)N[C@@H](CC(=O)O)C(=O)N[C@@H](CCCCN)C(=O)N[C@@H](CCCCNC(=O)COCCOCCNC(=O)COCCOCCNC(=O)CC[C@H](NC(=O)CCCCCCCCCCCCCCCCCCC(=O)O)C(=O)O)C(=O)N[C@@H](C)C(=O)N[C@@H](CCC(N)=O)C(=O)N[C@@H](CCCNC(=N)N)C(=O)N[C@@H](C)C(=O)N[C@@H](Cc1ccccc1)C(=O)N[C@H](C(=O)N[C@@H](CC(N)=O)C(=O)N[C@@H](Cc1c[nH]c2ccccc12)C(=O)N[C@@H](CC(C)C)C(=O)N[C@H](C(=O)N[C@@H](C)C(=O)NC(C)(C)C(=O)N[C@@H](CCCCN)C(=O)N1CCC[C@H]1C(=O)N[C@@H](CO)C(=O)N[C@@H](CO)C(=O)NCC(=O)N[C@@H](C)C(=O)N1CCC[C@H]1C(=O)N1CCC[C@H]1C(=O)N1CCC[C@H]1C(=O)N[C@@H](CO)C(N)=O)C(C)C)C(C)C` [Compound 16], the values for the EC50 on human GIP R (setting [1]) and on human GLP-1 R (setting [2]) were 8 pM and 9 pM, respectively.
Consider `CC[C@H](C)[C@H](NC(=O)[C@H](CO)NC(=O)[C@H](CC(C)C)NC(=O)[C@H](CC(=O)O)NC(=O)[C@H](CO)NC(=O)[C@@H](NC(=O)[C@H](Cc1ccccc1)NC(=O)[C@@H](NC(=O)CNC(=O)[C@H](CCC(=O)O)NC(=O)C(C)(C)NC(=O)[C@@H](N)Cc1ccc(O)cc1)[C@@H](C)O)[C@@H](C)O)C(=O)N[C@@H](C)C(=O)N[C@@H](CC(C)C)C(=O)N[C@@H](CCC(=O)O)C(=O)N[C@@H](CCCCN)C(=O)N[C@@H](CCCCNC(=O)COCCOCCNC(=O)COCCOCCNC(=O)CC[C@H](NC(=O)CCCCCCCCCCCCCCCCC(=O)O)C(=O)O)C(=O)N[C@@H](C)C(=O)N[C@@H](CCC(N)=O)C(=O)N[C@@H](CCCNC(=N)N)C(=O)N[C@@H](C)C(=O)N[C@@H](Cc1ccccc1)C(=O)N[C@H](C(=O)N[C@@H](CCC(=O)O)C(=O)N[C@@H](Cc1c[nH]c2ccccc12)C(=O)N[C@@H](CC(C)C)C(=O)N[C@@H](CC(C)C)C(=O)N[C@@H](C)C(=O)N[C@@H](CCC(N)=O)C(=O)N[C@@H](CCCCN)C(N)=O)C(C)C` [Compound 17] (H-Y[Aib]EGTFTSDLSIALEKK([AEEA-AEEA-γGlu-C18 diacid])AQRAFVEWLLAQK-NH2), for which the EC50 is 11 pM on human GIP R (setting [3]); 6.2 pM at human GLP-1 R (setting [4]); 6 pM at human GLP-1 R (Table 3, most comprehensive data, read-out: hGLP-1-R cAMP EC50 average value).
In the case of `CC[C@H](C)[C@H](NC(=O)[C@H](CO)NC(=O)[C@H](Cc1ccc(O)cc1)NC(=O)[C@H](CC(=O)O)NC(=O)[C@H](CO)NC(=O)[C@@H](NC(=O)[C@H](Cc1ccccc1)NC(=O)[C@@H](NC(=O)CNC(=O)[C@H](CCC(=O)O)NC(=O)C(C)(C)NC(=O)[C@@H](N)Cc1ccc(O)cc1)[C@@H](C)O)[C@@H](C)O)C(=O)N[C@@H](C)C(=O)N[C@@H](CC(C)C)C(=O)N[C@@H](CCC(=O)O)C(=O)N[C@@H](CCCCN)C(=O)N[C@@H](CCCCNC(=O)COCCOCCNC(=O)COCCOCCNC(=O)CC[C@H](NC(=O)CCCCCCCCCCCCCCCCC(=O)O)C(=O)O)C(=O)N[C@@H](C)C(=O)N[C@@H](CCC(N)=O)C(=O)N[C@@H](CCCNC(=N)N)C(=O)N[C@@H](C)C(=O)N[C@@H](Cc1ccccc1)C(=O)N[C@H](C(=O)N[C@@H](CCC(=O)O)C(=O)N[C@@H](Cc1c[nH]c2ccccc12)C(=O)N[C@@H](CC(C)C)C(=O)N[C@@H](CC(C)C)C(=O)N[C@@H](C)C(=O)N[C@@H](CCC(N)=O)C(=O)N[C@@H](CCCCN)C(N)=O)C(C)C` [Compound 17] (H-Y[Aib]EGTFTSDYSIALEKK([AEEA-AEEA-γGlu-C18 diacid])AQRAFVEWLLAQK-NH2), the EC50 at human GIP R (setting [1]) was 8 pM; on human GLP-1 R (setting [2]), 15 pM.
Taken in the same sequence, the figures for `CC[C@H](C)[C@H](NC(=O)[C@H](CO)NC(=O)[C@H](CC(C)C)NC(=O)[C@H](CC(=O)O)NC(=O)[C@H](CO)NC(=O)[C@@H](NC(=O)[C@H](Cc1ccccc1)NC(=O)[C@@H](NC(=O)CNC(=O)[C@H](CCC(=O)O)NC(=O)C(C)(C)NC(=O)[C@@H](N)Cc1ccc(O)cc1)[C@@H](C)O)[C@@H](C)O)C(=O)N[C@@H](C)C(=O)N[C@@H](CC(C)C)C(=O)N[C@@H](CCC(=O)O)C(=O)N[C@@H](CCCCN)C(=O)N[C@@H](CCCCNC(=O)COCCOCCNC(=O)COCCOCCNC(=O)CC[C@H](NC(=O)CCCCCCCCCCCCCCCCC(=O)O)C(=O)O)C(=O)N[C@@H](C)C(=O)N[C@@H](CCC(N)=O)C(=O)N[C@@H](CCCNC(=N)N)C(=O)N[C@@H](C)C(=O)N[C@@H](Cc1ccccc1)C(=O)N[C@H](C(=O)N[C@@H](CCC(=O)O)C(=O)N[C@@H](Cc1c[nH]c2ccccc12)C(=O)N[C@@H](CC(C)C)C(=O)N[C@@H](CC(C)C)C(=O)N[C@@H](C)C(=O)N[C@@H](CCC(N)=O)C(=O)N[C@@H](CCCCN)C(N)=O)C(C)C` [Compound 18] (H-Y[Aib]EGTFTSDLSIALEKK([AEEA-AEEA-γGlu-C18 diacid])AQRAFVEWLLAQK-NH2) were 11 pM and 6 pM.
For the compound `CC[C@H](C)[C@H](NC(=O)[C@H](CO)NC(=O)[C@H](Cc1ccc(O)cc1)NC(=O)[C@H](CC(=O)O)NC(=O)[C@H](CO)NC(=O)[C@@H](NC(=O)[C@H](Cc1ccccc1)NC(=O)[C@@H](NC(=O)CNC(=O)[C@H](CCC(=O)O)NC(=O)C(C)(C)NC(=O)[C@@H](N)Cc1ccc(O)cc1)[C@@H](C)O)[C@@H](C)O)C(=O)N[C@@H](Cc1ccc(O)cc1)C(=O)N[C@@H](CC(C)C)C(=O)N[C@@H](CCC(=O)O)C(=O)N[C@@H](CCCCN)C(=O)N[C@@H](CCCCNC(=O)COCCOCCNC(=O)COCCOCCNC(=O)CC[C@H](NC(=O)CCCCCCCCCCCCCCCCC(=O)O)C(=O)O)C(=O)N[C@@H](C)C(=O)N[C@@H](CCC(N)=O)C(=O)N[C@@H](CCCNC(=N)N)C(=O)N[C@@H](C)C(=O)N[C@@H](Cc1ccccc1)C(=O)N[C@H](C(=O)N[C@@H](CCC(=O)O)C(=O)N[C@@H](Cc1c[nH]c2ccccc12)C(=O)N[C@@H](CC(C)C)C(=O)N[C@@H](CC(C)C)C(=O)N[C@@H](CCCNC(=N)N)C(=O)N[C@@H](C)C(N)=O)C(C)C` [Compound 18] (H-Y[Aib]EGTFTSDYSIYLEKK([AEEA-AEEA-γGlu-C18 diacid])AQRAFVEWLLRA-NH2), the EC50 came to 14 pM at human GIP R (setting [3]) and 22 pM on human GLP-1 R (setting [4]).
In the case of `CC[C@H](C)[C@H](NC(=O)[C@H](CO)NC(=O)[C@H](Cc1ccc(O)cc1)NC(=O)[C@H](CC(=O)O)NC(=O)[C@H](CO)NC(=O)[C@@H](NC(=O)[C@H](Cc1ccccc1)NC(=O)[C@@H](NC(=O)CNC(=O)[C@H](CCC(=O)O)NC(=O)C(C)(C)NC(=O)[C@@H](N)Cc1ccc(O)cc1)[C@@H](C)O)[C@@H](C)O)C(=O)N[C@@H](C)C(=O)N[C@@H](CC(C)C)C(=O)N[C@@H](CC(=O)O)C(=O)N[C@@H](CCCCN)C(=O)N[C@@H](CCCCNC(=O)COCCOCCNC(=O)COCCOCCNC(=O)CC[C@H](NC(=O)CCCCCCCCCCCCCCCCC(=O)O)C(=O)O)C(=O)N[C@@H](C)C(=O)N[C@@H](CCC(N)=O)C(=O)N[C@@H](CCCNC(=N)N)C(=O)N[C@@H](C)C(=O)N[C@@H](Cc1ccccc1)C(=O)N[C@H](C(=O)N[C@@H](CC(N)=O)C(=O)N[C@@H](Cc1c[nH]c2ccccc12)C(=O)N[C@@H](CC(C)C)C(=O)N[C@H](C(=O)N[C@@H](C)C(=O)NC(C)(C)C(=O)N[C@@H](CCCCN)C(N)=O)C(C)C)C(C)C` [Compound 19] (H-Y[Aib]EGTFTSDYSIALDKK([AEEA-AEEA-γGlu-C18 diacid])AQRAFVNWLVA[Aib]K-NH2), the EC50 at human GIP R (setting [3]) is 7.3 pM; at human GIP R (Table 3, most comprehensive data), 7 pM; on human GLP-1 R (setting [4]), 14 pM.

These data come from patent US10093713B2, “GIP-GLP-1 dual agonist compounds and methods” (priority 2013, dated 2018).
